The text below walks through data of paper PMC9166630, “SAR Probing of KX2-391 Provided Analogues With Juxtaposed Activity Profile Against Major Oncogenic Kinases” (Frontiers in Oncology, 2022).

Values after ≈ are worked out from the molar mass of the structure shown. Like-named read-outs stand apart in the source and are kept apart here.

Series [1] relates to HL60 leukemia cell line. In words: CellTiter-Blue cell viability assay, HL60. The note with it: Homo sapiens, HL-60; CellTiter-Blue, 48 h; maximum tested concentration 20 µM; read-out: IC50 ± SEM, HL60. Type of series: cell-based. Here is the method: (§1) HL60, K562, MV4-11 and NB4 were purchased from CLS Cell Line Service GmbH (Eppelheim, Germany). All cell lines were cultured in RPMI-1640 medium supplemented with 10% fetal bovine serum (FBS) (Thermo Fisher Scientific) and 0.1% ciprofloxacin (2.5mg/ml; Cipla Limited; Mumbai, India), and were maintained at 37°C in the presence of 21% O2 and 5% CO2.
(§2) Cell viability was determined using the CellTiter®-Blue Cell Viability Assay kit (Promega, Madison, WI, USA). Approximately 10^4 cells were counted and plated in a 96-well plate in the presence of test compounds ranging from 0.01 to 10 or 20 µM in triplicate and were incubated for 48 h at 37°C in a humidified incubator. After the incubation period was complete, 20 µL of CellTiter®-Blue Cell Viability Assay reagent was added to each well and incubated for additional 2 h for the development of florescence. Florescence was measured at Ex/Em 540/590 on SpectraMax® i3 Multi-Mode microplate reader (Molecular Devices, LLC; San Jose, CA, USA) and plotted against drug concentration to determine the IC50 of the test compounds. The IC50 was obtained by non-linear regression model using GraphPad Prism 6.07 (GraphPad Software, Inc, USA).
On the technique in general: The colour change of resazurin is a common sign of viable cells or microbes.

Series [2] relates to NB4 leukemia cell line. In words: CellTiter-Blue cell viability assay, NB4. Type of series: cell-based, human. The settings on record: CellTiter-Blue, 48 h, maximum tested concentration 20 µM, read-out: IC50 ± SEM, NB4. Here is the method: as §1, §2
The nature of series [3]: Maximum kinetic aqueous solubility. The settings on record: 2% DMSO/PBS, pH 7.4, read-out: Max. aq. Sol. The series is classed as physicochemical. Here is the method: Solubility assays were performed using Millipore MultiScreen® HTS-PFC Filter Plates designed for solubility assays (EMD Millipore, Billerica, MA). Assays were run in triplicate. The 96-well plates consist of two chambers separated by a filter. Liquid handling was performed using JANUS® Verispan and MTD workstations (Perkin Elmer, Waltham, MA). 4 µL of 4e or 4n solution (10 mM in DMSO) was added to 196 µL of phosphate buffer (45 mM potassium phosphate, 45 mM sodium acetate, 45 mM ethanolamine, pH = 7.4) in the top chamber to give a final DMSO concentration of 2% and a theoretical drug concentration of 200 µM. Plates were gently shaken for 90 min and then subjected to vacuum. Insoluble drug is captured on the filter. 160 µL of the filtrate is transferred to 96-well Griener UV Star® analysis plates (Sigma–Aldrich, St. Louis, MO) containing 40 µL of acetonitrile. The test compound concentration in the filtrate is measured by UV absorbance on a Spectromax® Plus microplate reader (Molecular Devices, Sunnyvale, CA) using Softmax Pro software v.5.4.5. Absorbances at 5 wavelengths (280, 300, 320, 340, and 360 nm) were summed to generate the UV signal. Standard curves were generated by adding 4 µL of five concentrations of test compound in DMSO to 40 µL of acetonitrile in UV Star plates followed by 156 µL of the appropriate solubility medium. Analysis and statistics were performed using GraphPad® Prism v.5.04. Data were reported as the maximum concentration observed in the filtrate.

Series [4] in a line: Stability in human liver microsomes. Type of series: in vitro ADME. The note with it: for half-life: human liver microsomes with NADPH, 37°C, read-out: Stability HLM t1/2; for Mic. Ctrl. Human % 60 min: human liver microsomes, no NADPH added. Here is the method:
Both mouse and human liver microsomes were obtained from Merck KGaA, (Darmstadt, Germany), Cat. No. M9441 (Mouse liver microsomes) and M0317 (Human liver microsomes). Assays were conducted in triplicate in 96-deep well polypropylene plates. […] At five time points, reaction mixture aliquots were transferred to 96-shallow well stop plates on ice containing acetonitrile with 0.1 µM propafenone. […] Standard curves for test compound were generated using 5 concentrations in triplicate that were processed as above but with zero incubation time. Stop plates were centrifuged at 2000 g for 10 min and then supernatant aliquots were transferred to a Waters Aquity® UPLC 700 µL 96-well sample plate with cap mat (Waters, Milford, MA). The amount of compound remaining in the supernatant was quantified by LC/MS/MS using a Waters Xevo TQ MS (electrospray positive mode) coupled to a Waters Aquity® UPLC (BEH column, C18). Propafenone was used as the internal standard. GraphPad® Prism v 5.04 was used for nonlinear fitting of time course data to generate t1/2 values.

Series [5] is described as follows: Stability in mouse plasma. The note with it: CD-1, mouse, pH 7.4, 37°C, read-out: Mouse Plasma Stability t1/2. The series is classed as in vitro ADME. Here is the method: The assay was conducted at 37°C in triplicate. Test compounds or procaine (positive control) were tested at a final concentration of 1 µM in either 2.5% DMSO/CD-1 mouse plasma (Innovative Research, Novi, MI; sodium heparin added as anticoagulant; pH adjusted to 7.4 with 2N HCl on day of use) or 2.5% DMSO/PBS (pH 7.4: 136.9 mM NaCl, 2.68 mM KCl, 8.1 mM Na2HPO4, 1.47 mM KH2PO4, 0.9 mM CaCl2, 0.49 mM MgCl2). At seven time points, reaction mixture aliquots were transferred to 96-shallow well stop plates on ice containing acetonitrile with 0.1 µM propafenone. Samples were analyzed by LC/MS/MS on a Waters Xevo TQ instrument as described above using positive electrospray ionization. Assay acceptance criteria was 20% for all standards and 25% for the LLOQ. GraphPad® Prism v. 5.04 was used for nonlinear fitting of data to generate t1/2 values.

Series [6] can be described thus: Binding to mouse plasma proteins (equilibrium dialysis). The series is classed as in vitro ADME. The note with it: 10 µM, 37°C, 22 h dialysis. As to the method:
The equilibrium dialysis method for determining plasma protein binding was performed as previously described using 96-well dialyzer plates with molecular weight cutoff of 5K (Harvard Aparatus, Holliston, MA) and a dual-plate rotator set to maximum speed (Harvard Aparatus, Holliston, MA) located in a 37°C incubator with a 10% CO2-atmospheric environment. Assays were run in triplicate. The test compounds were added to CD-1 mouse plasma (Innovative Research, Novi, MI, sodium heparin added as anticoagulant; pH adjusted to 7.4 with 2N HCl on day of use) in DMSO (final DMSO concentration 0.4%) to give 10 µM final concentration. Drug/plasma mixture and buffer (Dulbecco’s phosphate-buffered saline 1X without calcium and magnesium, Mediatech, Inc., Herndon, VA) were placed in their respective sides, wells were capped, and the plate was placed in the rotator and allowed to dialyze for 22 h. Following dialysis, aliquots of buffer and plasma mixture were removed and mixed with aliquots of the opposite matrix in 96-well deep plates. Concentrations of analytes from each side of the dialysis plate were determined by LC/MS/MS on a Waters Xevo TQ instrument as described above using positive electrospray ionization. […] The fraction unbound was calculated by dividing the drug concentration in the buffer side of the dialysis plate by the drug concentration in the plasma side.
(In equilibrium dialysis free small molecules cross a membrane that holds back macromolecules.)

[7] abbreviates: phosphate buffer with 2% DMSO, aqueous buffer, kinetic from dmso stock.

The term IC50 denotes the concentration at which inhibition is half-maximal. Take `O=C(Cc1ccc(NC(=O)c2cccc(Cl)c2)cc1)NCc1ccccc1` [Compound 4e, N-(4-(2-(benzylamino)-2-oxoethyl)phenyl)-3-chlorobenzamide]: the IC50 in series [1] came out at 1620 ± 130 nM; in series [2], 940 nM; in series [2] (Homo sapiens) it was 960 nM. Further, the solubility kinetic at 90 min in series [3] is less than 2.0 µM; in series [3] (setting [7]), less than 2 µM. Also, the half-life in series [4] is more than 1 h. In addition, in series [4], the “Mic. Ctrl. Human % 60 min” value turned out to be 102%. Moreover, the half-life at 1 µM in series [5] is more than 5 h. Also, the “Mouse PPB (% free)” value in series [6] is recorded as 0.8 % free.
For `O=C(Cc1ccc(NC(=O)c2cccc(Cl)n2)cc1)NCc1ccccc1` [Compound 4n, N-(4-(2-(benzylamino)-2-oxoethyl)phenyl)-6-chloropicolinamide], the IC50 in series [1] is 2220 ± 60 nM. Also, the IC50 in series [2] (Homo sapiens) worked out at 1540 ± 660 nM. For the same compound, the solubility kinetic at 90 min in series [3] (setting [7]) came out at 2.6 µM (≈ 0.988 µg/mL). Also, in series [4], the half-life came out at 0.668 h and the “Mic. Ctrl. Human % 60 min” value was determined as 98%. Moreover, the half-life at 1 µM in series [5] is 2.97 h. Further, the “Mouse PPB (% free)” value in series [6] is listed as “Unstable”.
